Laboratory results as given in ChEMBL document CHEMBL5380844, “Discovery of a Novel, Potent, Orally Active, and Safe Inhibitor Targeting Human Mitochondrial RNA Polymerase” (J Med Chem, 2023).
≈ marks a conversion by molar mass, not a printed value. Calls of active or inactive are those of the source. No cut-off for these calls is given here.

Assays:
A2780 [1] = experiment: Induction of apoptosis in human A2780 cells assessed as early apoptotic cells at 50 nM incubated for 96 hrs by Annexin-V/FITC and PI staining based flow cytometry analysis (reference value: 14.14%); format: functional
A2780 [2] = experiment: Inhibition of colony formation in human A2780 cells at upto 500 nM incubated for 14 days by crystal violet staining based analysis; format: functional, cell-based; settings: time 14.0 day
A2780 [3] = experiment: Inhibition of colony formation in human A2780 cells assessed as decrease in size of colonies at 10 nM incubated for 14 days by crystal violet staining based analysis; format: functional, cell-based; settings: time 14.0 day
A2780 [4] = experiment: Induction of cell cycle arrest in human A2780 cells assessed as accumulation of cells at G1 phase at 200 nM measured after 96 hrs by PI staining based flow cytometry analysis (reference value: 80.81%); format: functional
A2780 [5] = experiment: Induction of cell cycle arrest in human A2780 cells assessed as accumulation of cells at G2 phase at 50 nM measured after 96 hrs by PI staining based flow cytometry analysis (reference value: 4.49%); format: functional
A2780 [6] = experiment: Induction of apoptosis in human A2780 cells assessed as viable cells at 200 nM incubated for 96 hrs by Annexin-V/FITC and PI staining based flow cytometry analysis (reference value: 89.2%); format: functional; settings: read-out: Activity
A2780 [7] = experiment: Induction of apoptosis in human A2780 cells assessed as early apoptotic cells at 200 nM incubated for 96 hrs by Annexin-V/FITC and PI staining based flow cytometry analysis (reference value: 14.14%); format: functional
A2780 [8] = experiment: Induction of apoptosis in human A2780 cells assessed as necrotic cells at 100 nM incubated for 96 hrs by Annexin-V/FITC and PI staining based flow cytometry analysis (reference value: 2.07%); format: functional
A2780 [9] = experiment: Induction of apoptosis in human A2780 cells assessed as necrotic cells at 200 nM incubated for 96 hrs by Annexin-V/FITC and PI staining based flow cytometry analysis (reference value: 2.07%); format: functional
A2780 [10] = experiment: Induction of apoptosis in human A2780 cells assessed as increase in cleaved PARP cleavage level at upto 500 nM by immunoblot analysis; format: functional, cell-based
A2780 [11] = experiment: Effect on cellular senescence in human A2780 cells at 0.05 to 1 uM measured after 96 hrs by beta-galactosidase staining based analysis; format: functional, cell-based; settings: dose 0.05-1 µM
A2780 [12] = experiment: Induction of mitochondrial membrane potential changes in human A2780 cells assessed as increase in Q3 phase at 0 to 5 uM measured after 96 hrs by flow cytometry analysis; format: functional, cell-based; settings: dose 0-5 µM
A2780 [13] = experiment: Induction of mitochondrial membrane potential changes in human A2780 cells at upto 500 nM measured after 96 hrs by JC-1 staining based immunofluorescence assay; format: functional, cell-based
A2780 [14] = experiment: Downregulation of NDUFB8 level in human A2780 cells by Western blot analysis; format: functional, cell-based; settings: dose <= 500.0 nM
A2780 [15] = experiment: Inhibition of MT-ND2 expression in human A2780 cells at 100 nM incubated for 12 hrs by RNA sequencing analysis; format: functional, cell-based
A2780 [16] = experiment: Inhibition of MT-ND4 expression in human A2780 cells at 100 nM incubated for 12 hrs by RNA sequencing analysis; format: functional, cell-based
A2780 [17] = experiment: Inhibition of MT-ND6 expression in human A2780 cells at 100 nM incubated for 12 hrs by RNA sequencing analysis; format: functional, cell-based
A2780 [18] = experiment: Inhibition of MT-CO3 expression in human A2780 cells at 100 nM incubated for 12 hrs by RNA sequencing analysis; format: functional, cell-based
A2780 [19] = experiment: Induction of mitochondrial morphological changes in human A2780 cells assessed as change in shape of mitochondria measured after 24 hrs by TEM analysis; format: functional, cell-based
MDA-MB-468 = experiment: Antiproliferative activity against human MDA-MB-468 cells incubated for 168 hrs by SRB method; format: functional, cell-based; settings: MDA-MB-468, 168 h
HeLa = experiment: Antiproliferative activity against human HeLa cells incubated for 168 hrs by SRB method; format: functional, cell-based
DLD-1 = experiment: Antiproliferative activity against human DLD-1 cells incubated for 168 hrs by SRB method; format: functional, cell-based; settings: DLD-1, 168 h
MIA PaCa-2 = experiment: Antiproliferative activity against human MIA PaCa-2 cells incubated for 168 hrs by SRB method; format: functional, cell-based; settings: MIA PaCa-2, 168 h
[20] = Apparent permeability across apical to basolateral side in human Caco-2 cells at 3 uM incubated for 2 hrs by LC-MS/MS analysis; format: ADME, cell-based
Cytochrome P450 2C9 = Cytochrome P450 2C9 (Homo sapiens, UniProt P11712); experiment: Inhibition of CYP2C9 (unknown origin) using diclofenac as substrate in presence of NADPH by LC/MS/MS analysis; format: ADME
[21] = Solubility in PBS at pH 7.4; format: physicochemical
[22] = Cmax in ICR mouse at 10 mg/kg, po measured upto 24 hrs by LC-MS/MS analysis; format: ADME, organism-based; set-up: time < 24 hrs, dose 10 mg/kg, route po; settings: in vivo
[23] = MRT in ICR mouse at 1 mg/kg, iv measured upto 24 hrs by LC-MS/MS analysis; format: ADME, organism-based; settings: in vivo
[24] = Half life in ICR mouse at 1 mg/kg, iv measured upto 24 hrs by LC-MS/MS analysis; format: ADME, organism-based; settings: in vivo
[25] = Half life in ICR mouse at 10 mg/kg, po measured upto 24 hrs by LC-MS/MS analysis; format: ADME, organism-based; settings: in vivo
A2780 [26] = experiment: Inhibition of mitochondrial transcript in human A2780 cells by RT-qPCR analysis; format: functional, cell-based; settings: dose 0.01-1 µM
A2780 [27] = experiment: Inhibition of mitochondrial transcript in human A2780 cells assessed as decrease in COX1 expression by RT-qPCR analysis; format: functional, cell-based
A2780 [28] = experiment: Effect on 5S mRNA level in human A2780 cells by RT-qPCR analysis; format: functional, cell-based
A2780 [29] = experiment: Inhibition of mitochondrial transcript in human A2780 cells incubated for 12 hrs followed by compound removal and measured after 12 hrs by RT-qPCR analysis; format: functional, cell-based
[30] = Toxicity in Balb/c mouse assessed as effect on body weight loss at 50 to 100 mg/kg, po measured after 27 days; format: organism-based; settings: in vivo, 648 h, dose 50-100 mg/kg, time 27 day
A2780 [31] = experiment: Antitumor activity against human A2780 cells xenografted in BALB/c nude mouse model assessed as reduction in mitochondrial DNA transcript level at 50 to 100 mg/kg, po administered daily; format: functional, organism-based; settings: dose 50-100 mg/kg
A2780 [32] = experiment: Antitumor activity against human A2780 cells xenografted in BALB/c nude mouse model assessed as reduction in ATP5A level at 100 mg/kg, po by immunoblotting analysis; format: functional, organism-based
A2780 [33] = experiment: Antitumor activity against human A2780 cells xenografted in BALB/c nude mouse model assessed as reduction in NDUFB level at 100 mg/kg, po by immunoblotting analysis; format: functional, organism-based
A2780 [34] = experiment: Antitumor activity against human A2780 cells xenografted in BALB/c nude mouse model assessed as induction of tumor shrinkage 100 mg/kg by H and E staining based immunohistochemical analysis; format: functional, organism-based
[35] = Toxicity in Balb/c mouse assessed as effect on heart at 100 mg/kg by H and E staining based analysis; format: organism-based; settings: in vivo
[36] = Toxicity in Balb/c mouse assessed as effect on kidney at 100 mg/kg by H and E staining based analysis; format: organism-based; settings: in vivo

Sequence of Cytochrome P450 2C9 (P11712 whole entry): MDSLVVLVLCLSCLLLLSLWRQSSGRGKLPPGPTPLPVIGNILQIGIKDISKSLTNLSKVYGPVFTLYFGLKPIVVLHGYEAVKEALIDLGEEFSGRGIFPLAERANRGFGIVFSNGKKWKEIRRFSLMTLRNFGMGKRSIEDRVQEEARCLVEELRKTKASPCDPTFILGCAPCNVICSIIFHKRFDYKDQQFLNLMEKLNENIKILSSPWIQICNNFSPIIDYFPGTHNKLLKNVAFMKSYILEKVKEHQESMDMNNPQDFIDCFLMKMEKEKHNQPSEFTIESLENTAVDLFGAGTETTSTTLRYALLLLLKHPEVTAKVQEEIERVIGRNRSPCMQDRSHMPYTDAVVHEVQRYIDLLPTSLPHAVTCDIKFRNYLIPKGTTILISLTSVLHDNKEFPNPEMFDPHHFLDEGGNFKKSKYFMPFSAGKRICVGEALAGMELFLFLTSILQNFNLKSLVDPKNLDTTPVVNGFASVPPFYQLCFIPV

Cc1ccc(-c2cc(=O)oc3cc(O[C@H](C)C(=O)N4CC5CCC(C4)N5C)ccc23)c(C)c1
Activity (A2780 [1]): 2.22%
inhibition (A2780 [2]): Active
inhibition (A2780 [3]): Active
Activity (A2780 [4]): 87.77%
Activity (A2780 [5]): 3.7%
viability at 0.2 µM (A2780 [6]): 90.7%
Activity (A2780 [7]): 0.73%
Activity (A2780 [8]): 4.46%
Activity (A2780 [9]): 4.01%
Activity (A2780 [10]): inactive
Activity (A2780 [11]): Active
Activity (A2780 [12]): inactive
Activity (A2780 [13]): inactive
Activity (A2780 [14]): Dose-Dependent Effect
inhibition (A2780 [15]): Active
inhibition (A2780 [16]): Active
inhibition (A2780 [17]): Active
inhibition (A2780 [18]): Active
Activity (A2780 [19]): inactive
IC50 (MDA-MB-468): 132 nM
IC50 (HeLa): 832 nM
IC50 (DLD-1): 69 nM
IC50 (MIA PaCa-2): 88 nM
Papp A→B at 2 h, 3 µM [20]: 6.93 ×10⁻⁶ cm/s
IC50 (Cytochrome P450 2C9): 34700 nM
solubility [21]: 226 µg/mL (≈ 506 µM)
Cmax [22]: 369 ng/mL
MRT [23]: 2.66 h
half-life [24]: 3.12 h
half-life [25]: 2.3 h
inhibition (A2780 [26]): Dose-Dependent Effect
inhibition (A2780 [27]): Active
Activity (A2780 [28]): inactive
inhibition (A2780 [29]): inactive
Activity [30]: Non-Toxic
Activity (A2780 [31]): Active
Activity (A2780 [32]): Active
Activity (A2780 [33]): Active
Activity (A2780 [34]): Active
Activity [35]: Non-Toxic
Activity [36]: Non-Toxic
